Legend:
[1] = test system: total human CD4+ T-cells; experiment: Th17 polarization of total CD4+ T-cells, cytokine ELISA; assay type: cell-based; conditions: for IL-17 concentration in Th17 cell supernatants: 72 h
Protocol: (§1) Total, naive and memory CD4^+ T cells were isolated from Peripheral blood mononuclear cells (PBMCs) from healthy volunteers by density gradient centrifugation using Ficoll Paque (GE). Total, naive or memory CD4^+ T-cells were prepared by immunomagnetic separation using the respective CD4^+ T-cell enrichment kits resulting in untouched highly purified subsets (EasySep™, Stem Cell). Purity was assessed by flow cytometry and was between 95 and 98% for the total CD4^+ T-cells. The purity of naive (CD45RA^+CD45RO^−) and memory (CD45RA^−CD45RO^+) CD4^+T-cells ranged between 95 and 98%, respectively. For T-cell stimulation experiments, cells were treated as previously published ([44]). Briefly, T-cells were stimulated with plate-bound monoclonal antibodies against CD3 (1 μg/ml, clone OKT-3, BioXcell) and CD28 (1 μg/ml, clone CD28.2, BioLegend). For Th17 polarization assays, IL-6 (20 ng/ml), TGF-β1 (5 ng/ml), IL-1β (10 ng/ml), and IL-23 (10 ng/ml) were added. For Th1 polarization assays, IL-12 (10 ng/ml) and anti-IL-4 antibody (5 μg/ml), for Th2 polarizations, IL-4 (10 ng/ml) and anti-IFN-γ antibody (5 μg/ml) were added. For Th0 polarization assays, cells were only stimulated with CD3 and CD28 antibodies. Supernatants were collected after 3 or 7 days of incubation for total or naive/memory CD4^+ T-cell polarizations, respectively. Cytokine concentrations were quantified by ELISA according to the manufacturer's instructions (eBioscience or BioLegend).

[2] = test system: T1, RORγt binding to RORE DNA binding sites; experiment: RORE oligonucleotide pull-down assay; assay type: cell-based, human; conditions: 10 μM, HUT78-RORγt nuclear extracts, anti-CD3/PMA 2 h, vs DMSO
T1 construct: HUT78 T-cells stably expressing full-length eGFP-RORγt; eGFP; expressed in transfected cells
Protocol: In order to detect RORγt binding to its cognate DNA binding sites, biotinylated oligonucleotide probes containing putative 4 × RORE or mutated-RORE DNA sequences were synthesized (Microsynth, Switzerland) and annealed in order to form a double stranded DNA probe. The probes contained the following sequences (where the bold nucleotides represent a putative RORγt binding site or the mutated form of the RORE):
Nuclear extracts originating from HUT78 cells stably expressing eGFP-RORγt were prepared as previously described ([45]). Briefly, cells were incubated with Cpd A (10 μM final concentration) for 0.5 h followed by a 2 h-stimulation period using CD3 antibody (2.5 μg/ml, clone OKT-3, BioXcell) plus PMA (8 ng/ml, Sigma). Nuclear lysates were generated using a nuclear extraction kit (Pierce, Thermo scientific), followed by a pre-clearing step with streptavidin-sepharose beads (GE healthcare Amersham) for 1 h at 4°C. The supernatants were incubated with biotinylated double-stranded RORE or with mutated RORE probes (10 nM final concentration) for 1 h at 4°C, followed by addition of a 50% slurry of streptavidin-sepharose beads for 1 h. The bound complexes were washed five times with 1 ml buffer consisting of 50 mM Tris-HCl, 1 mM EDTA, 1% NP-40, 150 mM NaCl and protease inhibitors (Roche). […]

[3] = target: T2, human RORγt-LBD (Homo sapiens, UniProt P51449); experiment: TR-FRET RIP140 co-activator peptide displacement from RORγt-LBD; assay type: biochemical; conditions: 1 h incubation, read-out: IC50, disruption of RIP140 peptide interaction with RORγt-LBD
T2 construct: human RORγt-LBD (264-518, produced at Novartis); made in house
T2 sequence (P51449 264-518): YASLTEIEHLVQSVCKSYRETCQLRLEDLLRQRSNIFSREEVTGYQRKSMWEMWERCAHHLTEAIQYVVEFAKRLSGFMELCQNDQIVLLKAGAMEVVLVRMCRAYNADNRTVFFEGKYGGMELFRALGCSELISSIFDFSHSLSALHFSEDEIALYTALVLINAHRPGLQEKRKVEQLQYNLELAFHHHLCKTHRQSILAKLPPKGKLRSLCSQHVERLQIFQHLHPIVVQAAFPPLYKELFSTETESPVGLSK
Protocol: Compound-mediated disruption of the interaction between the human RORγt-LBD (264-518, produced at Novartis) with a biotinylated RIP140 derived co-activator peptide (biotinyl-NH-Ahx-[…]-CONH2, Thermo Scientific) was quantified by TR-FRET as previously described ([34], [44]). Briefly, Cpd A was incubated with a mixture consisting of 6 nM His6-tagged RORγt-LBD, 90 nM biotinylated RIP140 co-activator peptide, 0.45 nM Cy5-labeled streptavidin (GE Healthcare), 1.5 nM Europium-labeled anti-His6 antibody (Perkin Elmer). After 1 h of incubation, the emissions were measured at 615 and 665 nm. Concentration-response curves were generated and IC50 values were calculated using the GraphPad Prism software package.

[4] = test system: T3, RORβ; experiment: RORβ LBD-GAL4 reporter gene assay in Jurkat cells; assay type: cell-based, human
T3 construct: RORα and RORβ we performed LBD-GAL4 reporter gene assays; expressed in transfected cells; host or cells: Jurkat cells stably carrying pGL4.35
Protocol: (§2) Selectivity against other ROR family members was assessed in a GAL4 reporter gene assay as previously described ([44]). Briefly, Jurkat cells stably expressing the pGL4.35 plasmid (Promega) containing nine GAL4 binding sites inducing the transcription of the luciferase reporter gene were transiently transfected with the human RORα, RORβ or RORγt-LBD/GAL4-DBD constructs. After 24 h post-transfection, cells were incubated with Cpd A for an additional 24 h before luciferase activity was determined using an EnVision Multilabel Plate Reader (Perkin Elmer).

[5] = test system: T4, RORα; experiment: RORα LBD-GAL4 reporter gene assay in Jurkat cells; assay type: cell-based, human
T4 construct: RORα and RORβ we performed LBD-GAL4 reporter gene assays; expressed in transfected cells; host or cells: Jurkat cells stably carrying pGL4.35
Protocol: as §2

[6] = test system: total CD4+ T-cells; experiment: Th0, Th1, Th2 polarization, signature cytokine ELISA; assay type: cell-based, human
Protocol: as §1

- IC50 ([1]; Homo sapiens, T-cell, total CD4+ T-cells, Th17 polarization 72 h, ELISA, read-out: IC50, IL-17A secretion): 39 nM
- RORγt association with the ROR elements [2]: still intact
- IC50 [3]: 5.7 nM
Structure (SMILES): Cc1ccc(C(=O)Nc2cn3ccnc3c(CN3CCN(c4noc(C(C)(C)C)n4)[C@@H](C)C3)c2C)cn1 [Cpd A, (S)-N-(8-((4-(5-(tert-butyl)-1,2,4-oxadiazol-3-yl)-3-methylpiperazin-1-yl)methyl)-7-methylimidazo[1,2-a]pyridin-6-yl)-6-methylnicotinamide]
- IL-17 concentration in Th17 cell supernatants ([1]; 0.13 nM (pharmacologically inactive concentration)): 600 pg/mL
- IL-17 concentration in Th17 cell supernatants ([1]; 10 μM (active concentration)): 150 pg/mL
- TNF-α concentration in Th17 cell supernatants ([1]; similar at low or high compound concentrations): 4 ng/mL
- activity toward RORβ (LBD-GAL4 reporter) [4]: lacked activity
- activity toward RORα (LBD-GAL4 reporter) [5]: lacked activity
- Th2 signature cytokine production (IL-13) ([6]; IL-4 and anti-IFN-γ antibody): did not have any impact
- Th1 signature cytokine production (IFN-γ) ([6]; IL-12 and anti-IL-4 antibody): did not have any impact
- Th0 signature cytokine production (IL-2) ([6]; anti-CD3 plus anti-CD28 only): did not have any impact
